Source: patent US9745310B2 (SK BIOPHARMACEUTICALS CO., LTD., priority 2015, dated 2017)

The compounds below were run against human mGluR5 receptor (Homo sapiens (Human), UniProt P41594) (assay: Calcium influx assay based on fluorescence (mGluR5 PAM activity)). Details: human mGluR5 receptor-overexpressed HEK293 cell line; L-glutamate EC20; Fluo-4, FLIPR.
In short: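 HEK293 cells overexpressing human mGluR5, loaded 1 h with Fluo-4 at 37° C. Compounds (10 μM to 10 nM final, 0.1–0.2% DMSO) added with an EC20 concentration of L-glutamate, and Ca2+ response read by FLIPR at room temperature. Activity scaled as 0% for EC20 glutamate alone and 100% for glutamate maximum.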

human mGluR5 receptor, sequence (P41594 21-1212): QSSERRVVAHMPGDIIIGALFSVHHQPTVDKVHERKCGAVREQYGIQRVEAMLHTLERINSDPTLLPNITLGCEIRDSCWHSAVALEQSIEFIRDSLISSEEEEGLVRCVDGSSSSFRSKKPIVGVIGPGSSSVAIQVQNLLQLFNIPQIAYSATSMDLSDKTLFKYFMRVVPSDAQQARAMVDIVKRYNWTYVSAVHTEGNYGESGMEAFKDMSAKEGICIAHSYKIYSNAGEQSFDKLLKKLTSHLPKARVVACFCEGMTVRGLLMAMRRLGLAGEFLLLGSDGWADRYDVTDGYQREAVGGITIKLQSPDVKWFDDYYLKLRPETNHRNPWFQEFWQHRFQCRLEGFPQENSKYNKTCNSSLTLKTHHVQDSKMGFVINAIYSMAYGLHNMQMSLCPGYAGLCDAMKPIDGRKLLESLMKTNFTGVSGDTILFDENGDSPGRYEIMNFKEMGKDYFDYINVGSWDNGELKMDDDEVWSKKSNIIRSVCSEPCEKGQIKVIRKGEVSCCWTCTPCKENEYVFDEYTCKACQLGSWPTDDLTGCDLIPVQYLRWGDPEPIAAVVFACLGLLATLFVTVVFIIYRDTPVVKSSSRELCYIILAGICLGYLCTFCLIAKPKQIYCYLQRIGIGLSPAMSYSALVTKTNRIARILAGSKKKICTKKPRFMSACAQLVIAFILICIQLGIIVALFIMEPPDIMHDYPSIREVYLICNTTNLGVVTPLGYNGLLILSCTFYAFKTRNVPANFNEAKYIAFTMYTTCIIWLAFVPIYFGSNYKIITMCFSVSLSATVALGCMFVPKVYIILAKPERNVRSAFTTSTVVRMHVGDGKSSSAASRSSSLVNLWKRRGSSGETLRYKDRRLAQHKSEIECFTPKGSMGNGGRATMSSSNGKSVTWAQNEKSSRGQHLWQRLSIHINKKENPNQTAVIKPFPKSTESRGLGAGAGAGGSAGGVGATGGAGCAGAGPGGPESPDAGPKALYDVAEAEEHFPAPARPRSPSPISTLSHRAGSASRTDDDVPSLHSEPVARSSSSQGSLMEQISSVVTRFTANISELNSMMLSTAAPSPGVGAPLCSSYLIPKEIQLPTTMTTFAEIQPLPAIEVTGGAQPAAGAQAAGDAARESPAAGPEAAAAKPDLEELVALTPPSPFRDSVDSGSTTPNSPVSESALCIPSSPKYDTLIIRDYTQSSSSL

`COc1cc(C#N)ccc1-c1cnc2nc(COc3cccc(F)c3)cn2c1` [Example 95, 4-[2-[(3-fluorophenoxy)methyl]imidazo[1,2-a]pyrimidin-6-yl]-3-methoxy-benzonitrile] and `COc1cc(C#N)ccc1-c1cnc2nc(COc3ccc(F)cn3)cn2c1` [Example 137, 4-[2-[(5-fluoro-2-pyridyl)oxymethyl]imidazo[1,2-a]pyrimidin-6-yl]-3-methoxy-benzonitrile] fall in the same range of EC50: 100 to 500 nM for the first, 100 to 500 nM for the second.

`OCc1cc(F)ccc1-c1cnc2nc(COc3cccc(F)c3)cn2c1` [Example 96, [5-fluoro-2-[2-[(3-fluorophenoxy)methyl]imidazo[1,2-a]pyrimidin-6-yl]phenyl]methanol] and `Nc1cc(F)ccc1-c1cnc2nc(COc3cccc(F)c3)cn2c1` [Example 101, 5-fluoro-2-[2-[(3-fluorophenoxy)methyl]imidazo[1,2-a]pyrimidin-6-yl]aniline] fall in the same range of EC50: 100 to 500 nM for the first, 100 to 500 nM for the second.

`OCc1cc(F)ccc1-c1cnc2nc(COc3ccc(F)cc3)cn2c1` [Example 97, [5-fluoro-2-[2-[(4-fluorophenoxy)methyl]imidazo[1,2-a]pyrimidin-6-yl]phenyl]methanol] and `CSc1cc(F)ccc1-c1cnc2nc(COc3ccc(F)cc3)cn2c1` [Example 98, 6-(4-fluoro-2-methylsulfanyl-phenyl)-2-[(4-fluorophenoxy)methyl]imidazo[1,2-a]pyrimidine] fall in the same range of EC50: 100 to 500 nM for the first, 100 to 500 nM for the second.

Compared with `COc1cc(-c2cnc3nc(COc4ccc(F)cc4)cn3c2)ccn1` [Example 99, 2-[(4-fluorophenoxy)methyl]-6-(2-methoxy-4-pyridyl)imidazo[1,2-a]pyrimidine], `Fc1ccc(-c2cnc3nc(COc4cc(F)ccn4)cn3c2)cc1` [Example 123, 6-(4-fluorophenyl)-2-[(4-fluoro-2-pyridyl)oxymethyl)imidazo[1,2-a]pyrimidine] is lower in EC50: 500 to 1000 nM for the first, 100 to 500 nM for the second.

`Cc1ccc(N)c(-c2cnc3nc(COc4cccc(F)c4)cn3c2)c1` [Example 100, 2-[2-[(3-fluorophenoxy)methyl]imidazo[1,2-a]pyrimidin-6-yl]-4-methyl-aniline] and `Cc1ccc(-c2cnc3nc(COc4ccc(F)cn4)cn3c2)c(C)c1` [Example 128, 6-(2,4-dimethylphenyl)-2-[(5-fluoro-2-pyridyl)oxymethyl)imidazo[1,2-a]pyrimidine] fall in the same range of EC50: 500 to 1000 nM for the first, 500 to 1000 nM for the second.

`Fc1ccc(-c2cnc3nc(COc4ccccn4)cn3c2)cc1` [Example 102, 6-(4-fluorophenyl)-2-(pyridin-2-yloxymethyl)imidazo[1,2-a]pyrimidine] and `Fc1ccc(-c2cnc3nc(COc4ccccn4)cn3c2)c(F)c1` [Example 105, 6-(2,4-difluorophenyl)-2-(pyridin-2-yloxymethyl)imidazo[1,2-a]pyrimidine] fall in the same range of EC50: 100 to 500 nM for the first, 100 to 500 nM for the second.

`Cc1ccccc1-c1cnc2nc(COc3ccccn3)cn2c1` [Example 103, 6-(2-methylphenyl)-2-(pyridin-2-yloxymethyl)imidazo[1,2-a]pyrimidine] and `CCc1ccccc1-c1cnc2nc(COc3ccccn3)cn2c1` [Example 115, 6-(2-ethylphenyl)-2-(2-pyridyloxymethyl)imidazo[1,2-a]pyrimidine] fall in the same range of EC50: 100 to 500 nM for the first, 100 to 500 nM for the second.

`COc1cc(F)ccc1-c1cnc2nc(COc3ccccn3)cn2c1` [Example 104, 6-(4-fluoro-2-methoxyphenyl)-2-(pyridin-2-yloxymethyl)imidazo[1,2-a]pyrimidine] and `COc1cc(Cl)ccc1-c1cnc2nc(COc3ccccn3)cn2c1` [Example 111, 6-(4-chloro-2-methoxyphenyl)-2-(pyridin-2-yloxymethyl)imidazo[1,2-a]pyrimidine] fall in the same range of EC50: 100 to 500 nM for the first, 100 to 500 nM for the second.

Compared with `Cc1cc(F)ccc1-c1cnc2nc(COc3ccccn3)cn2c1` [Example 106, 6-(4-fluoro-2-methylphenyl)-2-(pyridin-2-yloxymethyl)imidazo[1,2-a]pyrimidine], `Cc1ccc(F)cc1-c1cnc2nc(COc3ccccn3)cn2c1` [Example 108, 6-(5-fluoro-2-methylphenyl)-2-(pyridin-2-yloxymethyl)imidazo[1,2-a]pyrimidine] is higher in EC50: 100 to 500 nM for the first, 500 to 1000 nM for the second. The first is the more potent here.

Compared with `Fc1cccc(-c2cnc3nc(COc4ccccn4)cn3c2)c1F` [Example 107, 6-(2,3-difluorophenyl)-2-(pyridin-2-yloxymethyl)imidazo[1,2-a]pyrimidine], `Cc1c(F)cccc1-c1cnc2nc(COc3ccccn3)cn2c1` [Example 109, 6-(3-fluoro-2-methylphenyl)-2-(pyridin-2-yloxymethyl)imidazo[1,2-a]pyrimidine] is lower in EC50: 500 to 1000 nM for the first, 100 to 500 nM for the second.

`Fc1ccc(-c2cnc3nc(COc4ccccn4)cn3c2)c2c1OCO2` [Example 110, 6-(7-fluoro-2H-benzo[1,3]dioxol-4-yl)-2-(pyridin-2-yloxymethyl)imidazo[1,2-a]pyrimidine] and `Cc1ccc(-c2cnc3nc(COc4ccccn4)cn3c2)c(F)c1` [Example 117, 6-(2-fluoro-4-methyl-phenyl)-2-(2-pyridyloxymethyl)imidazo[1,2-a]pyrimidine] fall in the same range of EC50: 100 to 500 nM for the first, 100 to 500 nM for the second.

`COc1c(F)cccc1-c1cnc2nc(COc3ccccn3)cn2c1` [Example 112, 6-(3-fluoro-2-methoxy-phenyl)-2-(2-pyridyloxymethyl)imidazo[1,2-a]pyrimidine] and `COc1c(F)cccc1-c1cnc2nc(COc3cc(F)ccn3)cn2c1` [Example 121, 6-(3-fluoro-2-methoxy-phenyl)-2-[(4-fluoro-2-pyridyl)oxymethyl)imidazo[1,2-a]pyrimidine] fall in the same range of EC50: 100 to 500 nM for the first, 100 to 500 nM for the second.

`Fc1ccc(-c2cnc3nc(COc4ccccn4)cn3c2)c(C(F)(F)F)c1` [Example 113, 6-[4-fluoro-2-(trifluoromethyl)phenyl]-2-(2-pyridyloxymethyl)imidazo[1,2-a]pyrimidine] and `Fc1ccnc(OCc2cn3cc(-c4ccc(F)cc4C(F)(F)F)cnc3n2)c1` [Example 125, 2-[(4-fluoro-2-pyridyl)oxymethyl]-6-[4-fluoro-2-(trifluoromethyl)phenyl]imidazo[1,2-a]pyrimidine] fall in the same range of EC50: 100 to 500 nM for the first, 100 to 500 nM for the second.

`Cc1cc(F)ccc1-c1cnc2nc(COc3ccc(F)cn3)cn2c1` [Example 114, 6-(4-fluoro-2-methyl-phenyl)-2-[(5-fluoro-2-pyridyl)oxymethyl)imidazo[1,2-a]pyrimidine] and `Cc1cc(Cl)ccc1-c1cnc2nc(COc3ccc(F)cn3)cn2c1` [Example 127, 6-(4-chloro-2-methyl-phenyl)-2-[(5-fluoro-2-pyridyl)oxymethyl)imidazo[1,2-a]pyrimidine] fall in the same range of EC50: 100 to 500 nM for the first, 100 to 500 nM for the second.

`COc1cc(F)ccc1-c1cnc2nc(COc3cc(F)ccn3)cn2c1` [Example 118, 6-(4-fluoro-2-methoxy-phenyl)-2-[(4-fluoro-2-pyridyl)oxymethyl)imidazo[1,2-a]pyrimidine] and `Fc1ccnc(OCc2cn3cc(-c4ccc(F)cc4F)cnc3n2)c1` [Example 120, 6-(2,4-difluorophenyl)-2-[(4-fluoro-2-pyridyl)oxymethyl)imidazo[1,2-a]pyrimidine] fall in the same range of EC50: 100 to 500 nM for the first, 100 to 500 nM for the second.

First: Fc1ccc(OCc2cn3cc(-c4ccc(F)cc4C(F)(F)F)cnc3n2)nc1 [Example 119, 2-[(5-fluoro-2-pyridyl)oxymethyl]-6-[4-fluoro-2-(trifluoromethyl)phenyl]imidazo[1,2-a]pyrimidine]
Second: OCc1cc(F)ccc1-c1cnc2nc(COc3ccc(F)cn3)cn2c1 [Example 139, [5-fluoro-2-[2-[(5-fluoro-2-pyridyl)oxymethyl]imidazo[1,2-a]pyrimidin-6-yl]phenyl]methanol]
The EC50 of the first is lower: 100 to 500 nM for the first, 500 to 1000 nM for the second. The first is the more potent here.

First: Fc1ccnc(OCc2cn3cc(-c4cccc(F)c4F)cnc3n2)c1 [Example 122, 6-(2,3-difluorophenyl)-2-[(4-fluoro-2-pyridyl)oxymethyl)imidazo[1,2-a]pyrimidine]
Second: Cc1c(F)cccc1-c1cnc2nc(COc3ccc(F)cn3)cn2c1 [Example 124, 6-(3-fluoro-2-methyl-phenyl)-2-[(5-fluoro-2-pyridyl)oxymethyl)imidazo[1,2-a]pyrimidine]
The EC50 of the first is higher: 500 to 1000 nM for the first, 100 to 500 nM for the second. The second is the more potent here.

First: Cc1ccccc1-c1cnc2nc(COc3ccc(F)cn3)cn2c1 [Example 126, 2-[(5-fluoro-2-pyridyl)oxymethyl]-6-(o-tolyl)imidazo[1,2-a]pyrimidine]
Second: Fc1ccc(-c2cnc3nc(COc4ccc(F)cn4)cn3c2)cc1 [Example 129, 6-(4-fluorophenyl)-2-[(5-fluoro-2-pyridyl)oxymethyl)imidazo[1,2-a]pyrimidine]
The EC50 of the first is lower: 100 to 500 nM for the first, 500 to 1000 nM for the second. The first is the more potent here.

`FC(F)(F)c1ccc(-c2cnc3nc(COc4ccccn4)cn3c2)cn1` [Example 130, 2-(2-pyridyloxymethyl)-6-[6-(trifluoromethyl)-3-pyridyl]imidazo[1,2-a]pyrimidine] and `Fc1ccc(OCc2cn3cc(-c4ccc(C(F)(F)F)nc4)cnc3n2)nc1` [Example 131, 2-[(5-fluoro-2-pyridyl)oxymethyl]-6-[6-(trifluoromethyl)-3-pyridyl]imidazo[1,2-a]pyrimidine] fall in the same range of EC50: 100 to 500 nM for the first, 100 to 500 nM for the second.

First: Nc1cc(-c2cnc3nc(COc4ccc(F)cn4)cn3c2)ccc1F [Example 133, 2-fluoro-5-[2-[(5-fluoro-2-pyridyl)oxymethyl]imidazo[1,2-a]pyrimidin-6-yl]aniline]
Second: Nc1cc(-c2cnc3nc(COc4ccccn4)cn3c2)ccc1F [Example 134, 2-fluoro-5-[2-(2-pyridyloxymethyl)imidazo[1,2-a]pyrimidin-6-yl]aniline]
The EC50 of the first is higher: 500 to 1000 nM for the first, 100 to 500 nM for the second. The second is the more potent here.

`OCc1cc(F)ccc1-c1cnc2nc(COc3ccccn3)cn2c1` [Example 135, [5-fluoro-2-[2-(2-pyridyloxymethyl)imidazo[1,2-a]pyrimidin-6-yl]phenyl]methanol] and `CSc1cc(F)ccc1-c1cnc2nc(COc3ccccn3)cn2c1` [Example 138, 6-(4-fluoro-2-methylsulfanyl-phenyl)-2-(2-pyridyloxymethyl)imidazo[1,2-a]pyrimidine] fall in the same range of EC50: 100 to 500 nM for the first, 100 to 500 nM for the second.

`COc1cc(C#N)ccc1-c1cnc2nc(COc3ccccn3)cn2c1` [Example 136, 3-methoxy-4-[2-(2-pyridyloxymethyl)imidazo[1,2-a]pyrimidin-6-yl]benzonitrile] was tested, and the EC50 was 500 to 1000 nM.
